The values below come from ChEMBL document CHEMBL1158448, “Synthesis and antinociceptive activity of pyrazolyl isoxazolines and pyrazolyl isoxazoles” (2009).

Experiment [1] relates to Mus musculus. Put plainly: Antinociceptive activity in Swiss albino mouse assessed as protection against acetic acid-induced abdominal constriction at 30 mg/kg, po measured for 10 mins after 5 mins of acetic acid challenge relative to control. It is filed as functional, Abdomen.
In experiment [2] the test system is Rattus norvegicus. Put plainly: Antinociceptive activity in Wistar albino rat assessed as latency in reaction time required for thermal stimulus-induced tail flicking at 30 mg/kg, po after 30 mins by analgesiometric analysis (RVb=3.33 +/- 0.21 seconds). The format is functional.
The subject of experiment [3] is Mus musculus. The experiment can be described thus: Antinociceptive activity in Swiss albino mouse assessed as protection against acetic acid-induced abdominal constriction at 15 mg/kg, po measured for 10 mins after 5 mins of acetic acid challenge relative to control. It is filed as functional, Abdomen.
Experiment [4] has as its system Rattus norvegicus. The experiment can be described thus: Antinociceptive activity in Wistar albino rat assessed as latency in reaction time required for thermal stimulus-induced tail flicking at 30 mg/kg, po after 180 mins by analgesiometric analysis (RVb=3.16 +/- 0.16 seconds). The format is functional.
The subject of experiment [5] is Rattus norvegicus. The experiment can be described thus: Antinociceptive activity in Wistar albino rat assessed as latency in reaction time required for thermal stimulus-induced tail flicking at 15 mg/kg, po after 60 mins by analgesiometric analysis (RVb=3.16 +/- 0.16 seconds). The format is functional.
The subject of experiment [6] is Rattus norvegicus. Put plainly: Antinociceptive activity in Wistar albino rat assessed as latency in reaction time required for thermal stimulus-induced tail flicking at 30 mg/kg, po after 60 mins by analgesiometric analysis (RVb=3.16 +/- 0.16 seconds). It is filed as functional.
The test system of experiment [7] is Rattus norvegicus. The experiment can be described thus: Antinociceptive activity in Wistar albino rat assessed as latency in reaction time required for thermal stimulus-induced tail flicking at 30 mg/kg, po after 120 mins by analgesiometric analysis (RVb=3.33 +/- 0.21 seconds). The format is functional.
For experiment [8], the system named is Rattus norvegicus. Put plainly: Antinociceptive activity in Wistar albino rat assessed as latency in reaction time required for thermal stimulus-induced tail flicking at 15 mg/kg, po after 120 mins by analgesiometric analysis (RVb=3.33 +/- 0.21 seconds). It is filed as functional.
In experiment [9] the test system is Rattus norvegicus. Put plainly: Antinociceptive activity in Wistar albino rat assessed as latency in reaction time required for thermal stimulus-induced tail flicking at 15 mg/kg, po after 30 mins by analgesiometric analysis (RVb=3.33 +/- 0.21 seconds). It is filed as functional.
Experiment [10] has as its system Rattus norvegicus. Put plainly: Antinociceptive activity in Wistar albino rat assessed as latency in reaction time required for thermal stimulus-induced tail flicking at 15 mg/kg, po after 180 mins by analgesiometric analysis (RVb=3.16 +/- 0.16 seconds). The format is functional.

In the case of `COc1ccc(-c2nn(-c3ccccc3)cc2-c2cc(-c3ccccc3)on2)cc1`, the Activity in the experiment with Mus musculus [1] is 30.99%; in the experiment with Rattus norvegicus [2], 3.33 s; in the experiment on Mus musculus [3], 11.77%; in the experiment on Rattus norvegicus [4], 5.33 s; in the experiment with Rattus norvegicus [5], 4.16 s; in the experiment on Rattus norvegicus [6] it was 6 s. Further, the Activity is reported as 5.83 s with Rattus norvegicus [7], 4 s in the experiment with Rattus norvegicus [8], 3.16 s in the experiment on Rattus norvegicus [9] and 3.5 s with Rattus norvegicus [10].
With `CN1C(=O)C2ON=C(c3cn(-c4ccccc4)nc3-c3ccccc3)C2C1=O` (stereo not given), the Activity turned out to be 30.58% with Mus musculus [1]; 3.33 s in the experiment on Rattus norvegicus [2]; 1.17% with Mus musculus [3]; 4.83 s in the experiment with Rattus norvegicus [4]; 3.5 s with Rattus norvegicus [5]; 5.16 s with Rattus norvegicus [6]. Besides, the Activity was 5 s with Rattus norvegicus [7], 3.5 s in the experiment with Rattus norvegicus [8], 3.16 s with Rattus norvegicus [9] and 3.33 s in the experiment on Rattus norvegicus [10].
`CN1C(=O)C2ON=C(c3cn(-c4ccccc4)nc3-c3ccc(Cl)cc3)C2C1=O` (stereo not given): the Activity with Mus musculus [1] stood at 23.15%; in the experiment with Rattus norvegicus [2], 3.33 s; in the experiment on Mus musculus [3] it was 7.84%; with Rattus norvegicus [4], 5.5 s; in the experiment with Rattus norvegicus [5] it was 4 s; in the experiment with Rattus norvegicus [6] it was 6.66 s. Further, the Activity stood at 6.5 s in the experiment on Rattus norvegicus [7], 3.83 s in the experiment with Rattus norvegicus [8], 3.16 s in the experiment on Rattus norvegicus [9] and 3.66 s with Rattus norvegicus [10].
For the molecule `CCOC(=O)c1onc(-c2cn(-c3ccccc3)nc2-c2ccc(Cl)cc2)c1C(=O)OCC`, the Activity with Mus musculus [1] was 55.29%; in the experiment with Rattus norvegicus [2], 3.83 s; in the experiment with Mus musculus [3] it was 17.27%; in the experiment with Rattus norvegicus [4], 7.5 s; in the experiment on Rattus norvegicus [5] it was 4.33 s; with Rattus norvegicus [6], 8.66 s. The Activity in the experiment on Rattus norvegicus [7] is reported as 8.33 s; with Rattus norvegicus [8], 4.16 s; in the experiment on Rattus norvegicus [9], 3.33 s; in the experiment with Rattus norvegicus [10] it was 4 s.
Take `CCOC(=O)c1onc(-c2cn(-c3ccccc3)nc2-c2ccc(Br)cc2)c1C(=O)OCC`: the Activity is 56.87% in the experiment on Mus musculus [1]; 3.33 s with Rattus norvegicus [2]; 12.94% in the experiment on Mus musculus [3]; 7.5 s in the experiment with Rattus norvegicus [4]; 4 s in the experiment on Rattus norvegicus [5]; 8.16 s with Rattus norvegicus [6]. Besides, the Activity is on record as 8 s with Rattus norvegicus [7], 3.83 s with Rattus norvegicus [8], 3.33 s with Rattus norvegicus [9] and 3.5 s in the experiment on Rattus norvegicus [10].
For `CN1C(=O)C2ON=C(c3cn(-c4ccccc4)nc3-c3ccc(Br)cc3)C2C1=O` (stereo not given), the Activity with Mus musculus [1] is listed as 40.4%; in the experiment with Rattus norvegicus [2], 3.33 s; in the experiment with Mus musculus [3], 9.81%; in the experiment on Rattus norvegicus [4], 6.5 s; in the experiment on Rattus norvegicus [5], 3.83 s; in the experiment on Rattus norvegicus [6], 7.16 s. Further, the Activity in the experiment with Rattus norvegicus [7] came out at 7 s; in the experiment with Rattus norvegicus [8], 3.83 s; with Rattus norvegicus [9], 3.16 s; in the experiment on Rattus norvegicus [10] it was 3.33 s.
With `O=C1C2ON=C(c3cn(-c4ccccc4)nc3-c3ccc(Cl)cc3)C2C(=O)N1c1ccccc1` (stereo not given), the Activity stood at 43.15% in the experiment on Mus musculus [1]; 3.33 s in the experiment with Rattus norvegicus [2]; 23.93% with Mus musculus [3]; 5.5 s in the experiment with Rattus norvegicus [4]; 4.16 s in the experiment with Rattus norvegicus [5]; 6.16 s in the experiment on Rattus norvegicus [6]. For the same molecule, the Activity in the experiment with Rattus norvegicus [7] is on record as 6 s; in the experiment with Rattus norvegicus [8], 4 s; in the experiment on Rattus norvegicus [9] it was 3.33 s; with Rattus norvegicus [10], 3.66 s.
For `Cc1ccc(N2C(=O)C3ON=C(c4cn(-c5ccccc5)nc4-c4ccc(Cl)cc4)C3C2=O)cc1` (stereo not given), the Activity in the experiment with Mus musculus [1] is given as 42.75%; with Rattus norvegicus [2], 3.33 s; in the experiment with Mus musculus [3], 22.75%; in the experiment with Rattus norvegicus [4] it was 4.5 s; in the experiment on Rattus norvegicus [5] it was 3.66 s; with Rattus norvegicus [6], 5.33 s. Moreover, the Activity came to 5.16 s in the experiment on Rattus norvegicus [7], 3.33 s in the experiment on Rattus norvegicus [8], 3.33 s in the experiment on Rattus norvegicus [9] and 3.33 s with Rattus norvegicus [10].
For the molecule `O=C1C2ON=C(c3cn(-c4ccccc4)nc3-c3ccccc3)C2C(=O)N1c1ccccc1` (stereo not given), the Activity with Mus musculus [1] is 47.39%; in the experiment with Rattus norvegicus [2], 3.33 s; in the experiment on Mus musculus [3] it was 30.58%; with Rattus norvegicus [4], 5.66 s; in the experiment with Rattus norvegicus [5] it was 3.5 s; in the experiment on Rattus norvegicus [6], 6.83 s. In addition, the Activity in the experiment with Rattus norvegicus [7] stood at 6.66 s; with Rattus norvegicus [8] it was 3.33 s; in the experiment with Rattus norvegicus [9] it was 3.16 s; in the experiment on Rattus norvegicus [10] it was 3.33 s.
For the molecule `CCOc1ccc(-c2nn(-c3ccccc3)cc2C2=NOC3C(=O)N(c4ccccc4)C(=O)C23)cc1` (stereo not given), the Activity with Mus musculus [1] was found to be 49.51%; in the experiment with Rattus norvegicus [2] it was 3.16 s; in the experiment on Mus musculus [3] it was 12.16%; in the experiment on Rattus norvegicus [4], 5.83 s; with Rattus norvegicus [5] it was 3.16 s; in the experiment with Rattus norvegicus [6], 6.83 s. The Activity is given as 6.16 s in the experiment with Rattus norvegicus [7], 3.5 s with Rattus norvegicus [8], 3.16 s in the experiment with Rattus norvegicus [9] and 3.5 s in the experiment on Rattus norvegicus [10].
In the case of `CCOC(=O)c1onc(-c2cn(-c3ccccc3)nc2-c2ccc(OC)cc2)c1C(=O)OCC`, the Activity in the experiment on Mus musculus [1] amounted to 57.65%; in the experiment with Rattus norvegicus [2], 3.83 s; in the experiment on Mus musculus [3], 11.39%; with Rattus norvegicus [4], 7 s; in the experiment with Rattus norvegicus [5], 5 s; with Rattus norvegicus [6] it was 7.83 s. Besides, the Activity is 7.66 s with Rattus norvegicus [7], 4.33 s in the experiment on Rattus norvegicus [8], 3.33 s in the experiment on Rattus norvegicus [9] and 4 s with Rattus norvegicus [10].
Turning to `CCCCc1cc(-c2cn(-c3ccccc3)nc2-c2ccc(Cl)cc2)no1`, the Activity with Mus musculus [1] was found to be 47.09%; in the experiment with Rattus norvegicus [2], 3.33 s; in the experiment with Mus musculus [3], 12.56%; with Rattus norvegicus [4], 6.16 s; with Rattus norvegicus [5] it was 3.66 s; in the experiment on Rattus norvegicus [6], 6.83 s. Besides, the Activity in the experiment with Rattus norvegicus [7] amounted to 6.6 s; in the experiment with Rattus norvegicus [8], 3.5 s; in the experiment with Rattus norvegicus [9], 3.16 s; in the experiment with Rattus norvegicus [10], 3.33 s.
Turning to `O=C1C2ON=C(c3cn(-c4ccccc4)nc3-c3ccc(Br)cc3)C2C(=O)N1c1ccccc1` (stereo not given), the Activity with Mus musculus [1] is reported as 49.04%; in the experiment with Rattus norvegicus [2], 3.16 s; in the experiment with Mus musculus [3], 2.75%; in the experiment with Rattus norvegicus [4], 6.5 s; in the experiment on Rattus norvegicus [5], 3.66 s; in the experiment on Rattus norvegicus [6], 7 s. Further, the Activity in the experiment on Rattus norvegicus [7] came out at 6.83 s; with Rattus norvegicus [8] it was 3.66 s; with Rattus norvegicus [9], 3.16 s; with Rattus norvegicus [10], 3.33 s.
As to `Brc1ccc(-c2nn(-c3ccccc3)cc2-c2cc(-c3ccccc3)on2)cc1`, the Activity in the experiment on Mus musculus [1] was 31.39%; in the experiment on Rattus norvegicus [2], 3.33 s; in the experiment on Mus musculus [3] it was 14.52%; in the experiment with Rattus norvegicus [4], 5.16 s; in the experiment on Rattus norvegicus [5] it was 3.23 s; in the experiment on Rattus norvegicus [6], 5.83 s. The Activity worked out at 5.66 s in the experiment on Rattus norvegicus [7], 3.66 s in the experiment with Rattus norvegicus [8], 3.16 s with Rattus norvegicus [9] and 3.5 s with Rattus norvegicus [10].
Regarding `CCOc1ccc(-c2nn(-c3ccccc3)cc2C2=NOC3C(=O)N(C)C(=O)C23)cc1` (stereo not given), the Activity in the experiment with Mus musculus [1] is recorded as 47.46%; with Rattus norvegicus [2], 3.83 s; in the experiment with Mus musculus [3], 22.75%; in the experiment on Rattus norvegicus [4], 5.83 s; with Rattus norvegicus [5], 4 s; in the experiment on Rattus norvegicus [6], 6.16 s. Further, the Activity with Rattus norvegicus [7] worked out at 6 s; in the experiment on Rattus norvegicus [8], 3.83 s; with Rattus norvegicus [9] it was 3.16 s; in the experiment on Rattus norvegicus [10], 3.5 s.
As to `Clc1ccc(-c2nn(-c3ccccc3)cc2-c2cc(-c3ccccc3)on2)cc1`, the Activity with Mus musculus [1] was 49.04%; in the experiment on Rattus norvegicus [2], 3.83 s; in the experiment with Mus musculus [3], 1.58%; in the experiment with Rattus norvegicus [4], 6.16 s; in the experiment with Rattus norvegicus [5], 4.16 s; with Rattus norvegicus [6] it was 6.83 s. The Activity in the experiment with Rattus norvegicus [7] turned out to be 6.6 s; with Rattus norvegicus [8], 4 s; with Rattus norvegicus [9] it was 3.16 s; in the experiment on Rattus norvegicus [10], 3.83 s.
